61 compounds from ChEMBL document CHEMBL1157539, “Thousands of chemical starting points for antimalarial lead identification” (Nature, 2010) can be followed below.

For the experiment, the system named is Plasmodium falciparum. The experiment in a line: GSK_TCMDC: Inhibition of Plasmodium falciparum 3D7 in whole erythrocytes, using parasite LDH activity as an index of growth. The conditions noted are these: Plasmodium falciparum, 3D7. In kind it is functional, organism-based.
For the compound `Cc1ccc2c(N/N=C/c3cccc([N+](=O)[O-])c3)cc(C)nc2c1`, the XC50 came out at 272 nM.
For `CCN(CC)CCN(Cc1ccc(-c2ccc(C(F)(F)F)cc2)cc1)C(=O)Cn1cc(Cc2cnn(C)c2)c(=O)nc1/C=C/c1cccc(F)c1F` the value was 957 nM; for `O=C(/C=C/c1ccc(I)cc1)NCCCCCN1CCC(c2c[nH]c3ccccc23)CC1`, 836 nM; for `CC(C)(C)c1ccc2[nH]c(-c3ccc(C(=O)NCc4cccc(C(F)(F)F)c4)cc3)nc2c1`, 733 nM.
For `CC(CN1CCN(C)CC1)C(=O)Nc1cccc(-c2ccc(-c3nc4cc(C(F)(F)F)ccc4[nH]3)cc2)c1` (stereo unspecified) the value was 607 nM.
Take `CC(C)c1sc(N2CCN(C)CC2)nc1C(=O)NCCc1ccc(Br)cc1`: the XC50 came out at 1130 nM.
Compound `CCOc1ccc(C=CC(=O)Nc2ccc3nc(N4CCN(C)CC4)cc(C)c3c2)cc1OC` gave an XC50 of 398 nM.
For `Cc1cccc2nc(-c3cccc(-c4ccc(NC(=O)c5ccncc5)cc4)c3)[nH]c12` the value was 497 nM; for `FC(F)(F)c1ccc2[nH]c(-c3ccc(-c4ccc(CNCC5CCCO5)cc4)cc3)nc2c1` (stereo unspecified), 407 nM; for `CN1CCc2cc(NS(=O)(=O)c3ccc(-c4ccc(Cl)cc4)cc3)c(OCCCN3CCCCC3)cc2CC1`, 961 nM.
As for `CCn1c(Sc2ccc(C#N)c([N+](=O)[O-])c2)nnc1-c1cccc(Cl)c1`, the XC50 is 446 nM.
As to `NCc1cccc(-c2cccc(CNC3CCN(Cc4ccccc4)CC3)c2)c1`, the XC50 was 719 nM.
For `CC(=O)Nc1ccc(C(=O)Nc2ccc(-c3csc(-c4nc5ccccc5[nH]4)c3)cc2)cn1`, the XC50 was 591 nM.
With `O=C(NC1CCN(CCc2c[nH]c3ccc(F)cc23)CC1)c1ncc(-c2ccccc2)[nH]1` the figure was 868 nM; with `CS(=O)(=O)Cc1ccc(Nc2nccc(NC3CCN(c4nccc(C(F)(F)F)n4)CC3)n2)cc1`, 896 nM.
Compound `O=[N+]([O-])c1cccc(CNCC2CCN(Cc3ccc(-c4ccccc4)cc3)CC2)c1` showed an XC50 of 248 nM.
For `CCn1c(CN2CCC(C)CC2)nc2cc(NC(=O)c3cccs3)ccc21` the value was 565 nM; for `O=c1cc(-c2ccc3ccccc3c2)[nH]c2ccccc12`, 1160 nM.
In the case of `OC(CNC1CCCCC1)Cn1c2ccc(Br)cc2c2cc(Br)ccc21` (stereo unspecified), the XC50 is 303 nM.
For `CC(=O)Nc1cccc(C(=O)Nc2ccc(-c3cccc(-c4nc5cccc(C)c5[nH]4)c3)cc2)c1` the value was 789 nM; for `Cc1ccc(NC(=O)c2cccc(CN3CCCN(Cc4cccc(O)c4)CC3)c2)cc1`, 1310 nM; for `CC(C)Cc1cnc2nc(N)nc(N)c2c1`, 491 nM.
Compound `COc1cccc(C2CCCN(CCCCNC(=O)c3ccc(NC(=O)c4ccc(Cl)cc4)cc3)C2)c1` (stereo unspecified) showed an XC50 of 864 nM.
Take `c1ccc2c(CNCCCN3CCN(CCCNCc4c5ccccc5cc5ccccc45)CC3)c3ccccc3cc2c1`: the XC50 amounted to 182 nM.
With `O=C(NC1CCN(c2ccnc(Nc3ccc(F)cc3)n2)C1)c1cc2ccccc2s1` (stereo unspecified) the figure was 716 nM.
The compound `CC(C)[C@H](NC(=O)c1c(CN2CCC(N3CCCCC3)CC2)c(-c2ccccc2)nc2cc(O)ccc12)c1ccccc1` gave an XC50 of 741 nM.
As to `CC(C)C[C@H](NC(=O)c1ccc(OCCN2CCOCC2)cc1)C(=O)N[C@H](/C=N/N1CCNC1=O)CCc1ccccc1`, the XC50 turned out to be 365 nM.
With `Cc1cc(NC(=O)Nc2ccc3ncccc3c2)c2ccccc2n1` the figure was 956 nM.
Turning to `NC1=NC(c2ccccc2)(c2ccccc2)C(=O)N1CCCCc1ccccn1`, the XC50 was 1260 nM.
For `CN(C)CCCSc1ccccc1NC(=O)C=Cc1ccccc1`, the XC50 turned out to be 964 nM.
As for `CC[C@H]1CN2CC[C@@H]1C[C@H]2[C@H](O)c1cc(N2CCCC(C)(C)C2)nc2ccc(OC)cc12`, the XC50 stood at 337 nM.
The compound `CS(=O)(=O)Nc1cccc(-c2cnc3[nH]cc(-c4ccc(C(=O)O)c(F)c4)c3c2)c1` showed an XC50 of 834 nM.
Compound `COc1cc(Nc2nccn3c(-c4ccsc4)cnc23)cc(OC)c1OC` displayed an XC50 of 890 nM.
For `O=C(NCc1cccc(F)c1)Nc1cccc(-c2ccc(-c3nc4cc(C(F)(F)F)ccc4[nH]3)cc2)c1` the value was 766 nM; for `CC(C)(C)c1ccc(CN2CCC(NC(=O)c3cc(-c4cccc(C(F)(F)F)c4)cs3)C2)cc1` (stereo unspecified), 805 nM.
Regarding `CSc1ccc(CN2CCC(NC(=O)c3ccc(-c4ccc(N(C)C)cc4)s3)CC2)cc1`, the XC50 was determined as 1500 nM.
With `CCCCCCCN1CC[C@@H](CCCc2ccnc3ccc(OCCN4CCNCC4)cc23)[C@@H](CC)C1` the figure was 771 nM.
For `Cc1cccc2nc(-c3ccc(-c4ccc(CNCCCNS(C)(=O)=O)cc4)s3)[nH]c12` the value was 999 nM; for `CCCCCCC(CC)c1cc(O)c2c(c1)OC(C)(C)c1ccncc1-2` (stereo unspecified), 808 nM; for `O=C(NC1CCN(Cc2ccccc2)CC1)c1ccc(-c2nc3cc(Cl)c(F)cc3[nH]2)s1`, 306 nM.
Turning to `COc1ccc2c(c1)ncn2-c1cc(OCc2ccncc2Br)c(C(N)=O)s1`, the XC50 amounted to 609 nM.
With `O=C(N[C@H]1CCN(Cc2ccc(OCCN3CCCC3)c3ccccc23)C1)c1ccc(Cl)c(Cl)c1` the figure was 746 nM; with `CS(=O)(=O)NCCCNCc1ccc(-c2cccc(-c3nc4cc(F)ccc4[nH]3)c2)cc1`, 804 nM; with `CN1CCC(NCc2ccc(-c3cccc(S(=O)(=O)NCC4CCCO4)c3)cc2)CC1` (stereo unspecified), 939 nM.
The compound `CC1CN(Cc2ccc(-c3ccc(-c4nc5cc(F)ccc5[nH]4)s3)cc2)CC(C)O1` (stereo unspecified) displayed an XC50 of 876 nM.
As to `O=C(Cc1c(-c2ccccc2)[nH]c2ccccc12)NC1CCC(CN2CCC(c3c[nH]c4ccccc34)CC2)CC1` (stereo unspecified), the XC50 amounted to 476 nM.
The compound `O=C(Nc1ccc(C(F)(F)F)cc1)c1ccc(S(=O)(=O)NCC2CCCN(CC3CCCCC3)C2)cc1` (stereo unspecified) yielded an XC50 of 152 nM.
For `CC(C)Oc1cccc(-c2ccc(C(=O)NCC3CCCN(Cc4cccc(C(F)(F)F)c4)C3)s2)c1` (stereo unspecified), the XC50 worked out at 1080 nM.
On to `c1cc(Nc2nccc(-c3cnn4ncccc34)n2)cc(-c2cnco2)c1`, for which the XC50 was 692 nM.
Compound `COc1ccc(CN2CCCN(Cc3ccc(C(=O)Nc4ccc(Cl)cc4)cc3)CC2)cc1` registered an XC50 of 919 nM.
`CCCCn1c(SC(C)C)nc2c(c1=O)C1(CCCCC1)Cc1ccccc1-2`: the XC50 was 666 nM.
On to `Cc1cc(C(=O)N[C@H]2CCN(Cc3ccc(OCCCN(C)C)cc3)C2)ccc1Br`, for which the XC50 came out at 898 nM.
`Cc1[nH]c(C)c(-c2ccc(-c3ccc(Cl)cc3)nc2)c(=O)c1Cl`: the XC50 was 106 nM.
With `CC(C)C[C@H](NC(=O)c1cc2ccccc2s1)C(=O)N[C@H]1CCN(Cc2ccc(I)c(OCCN3CCCC3)c2)C1` the figure was 1350 nM; with `Nc1nc(N)c2c(ccc3ccccc32)n1`, 749 nM.
With `COc1ccc2ncc(F)c(CCN3CCC[C@H](CNCc4ccc5c(n4)NC(=O)CS5)C3)c2n1` the figure was 970 nM; with `CS(=O)(=O)CCNCc1nc(-c2ccc3ncnc(Nc4ccc(OCc5ccccc5)c(Cl)c4)c3c2)cs1`, 802 nM.
With `O=C(NC1CCCCN(Cc2ccc3c(c2)OCCO3)C1)c1cc(-c2ccccc2F)cs1` (stereo unspecified) the figure was 1050 nM.
`Cc1ccc(NC(=O)c2ccc3ncccc3c2)cc1OC1CCN(C(C)C)C1` (stereo unspecified) came in with an XC50 of 990 nM.
For `COC(=O)c1cccc(NC(=O)NC2CCN(c3ccnc(Nc4ccc(OC)cc4)n3)C2)c1` (stereo unspecified) the value was 472 nM.
With `CCCCN1CC[C@@H](CCC(O)c2ccnc3ccc(OCCC(C)C)cc23)[C@@H](CC)C1` (stereo partly specified) the figure was 989 nM.
